Measured values reported in patent US20250332173A1, “COMPOUNDS AND METHODS FOR MODULATING NUCLEIC ACID SPLICING” (REMIX THERAPEUTICS INC., priority 2021, published 2025).
Read-outs that look alike come from different tables or passages of the source.

Legend:
[1] = tested on: MYB mRNA; assay: RT-qPCR splicing assay, MYB canonical junction (CJ) and alternative junction (AJ) mRNA; format: cell-based, human; conditions: Homo sapiens; for AC50: increase in MYB alternative junction (AJ) mRNA, read-out: MYB AJ AC50
Outline: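 24 h treatment, 37 °C/5% CO2; A673 or K562; 11-pt 3-fold series, top 10 uM final; DMSO ≤0.25%. Cell lysis with DNase I, then 1-step RT-qPCR. Housekeeping normalization: PPIA (A673), GAPDH or GUSB (K562).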

[2] = tested on: MYB; assay: HiBiT protein abundance assay, MYB HiBiT K562 cell line; format: cell-based, human; conditions: HiBiT K562 cell line, 24 hours, top dose 10 μM; read-out: Effect on protein abundance, MYB (IC50 category)
Outline: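 K562 knock-in lines with endogenous HiBiT-tagged target, 10,000 cells/well in IMDM + FBS, treated 24 h at 37° C with 10-point 3-fold dilutions (top 10 μM final; DMSO ≤0.25%). Lytic Nano-Glo HiBiT luminescence normalized to untagged K562 baseline and DMSO controls; IC50 = concentration giving 50% abundance via four-parameter fit.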

[3] = tested on: K562 (human chronic myelogenous leukemia) cells; assay: Cell Titer Glo 2.0 cell viability assay; format: cell-based; conditions: Homo sapiens, K562, 72 h, K562 cells, 72 hours, Cell Titer Glo 2.0; read-out: K562 GI50
Method: Compounds described herein were screened for toxicity in K562 (human chronic myelogenous leukemia) cells using a Cell Titer Glo 2.0 assay.
Cells were plated at 500 cells/well (K562 cells) in 45 μL of IMDM supplemented with 1000 FBS in a 384-well opaque plate. Wells containing only medium were used as a blank control. Test compounds (e.g., compounds ofFormula (I), (II), (III), (IV), (V), (VI), (VII), (VIII), and (IX)) were first serially diluted in DMSO then diluted 1:100 with IMDM+10% FBS. The final concentration of DMSO was 0.1% in each well. The cells were incubated for 72 hours at 37° C. and 500 CO2 before assaying with Cell Titer Glo 2.0 reagent.

[4] = Table 5 panel, canonical junction qPCR, compound concentration having 50% response in CJ decrease, read-out: MYB IC50 (decrease in CJ mRNA levels)
[5] = decrease in MYB canonical junction (CJ) mRNA, RT-qPCR, read-out: MYB CJ IC50

Structure (SMILES)	IC50 [1, 4] [nM]	IC50 [1, 5] [nM]	AC50 ([1]; RT-qPCR) [nM]	IC50 [2] [nM]	GI50 [3] [nM]
Cc1cn2cc(-c3cc(F)c4c(=O)n(C5CCNC6(CC6)C5)ccc4c3)cc(C)c2n1 (centres unmarked) [Compound 416, 2-{4-azaspiro[2.5]octan-7-yl}-6-{2,8-dimethylimidazo[1,2-a]pyridin-6-yl}-8-fluoroisoquinolin-1-one]	< 100	< 100	< 100	< 100	< 100
Cc1cn2cc(-c3cc(F)c4c(=O)n(C5CCOC5)cnc4c3)cc(C#N)c2n1 (centres unmarked) [Compound 366, 6-[5-fluoro-4-oxo-3-(oxolan-3-yl)quinazolin-7-yl]-2-methylimidazo[1,2-a]pyridine-8-carbonitrile]	1000 to 10000	1000 to 10000	1000 to 10000	1000 to 10000	1000 to 10000
Cc1cc(-c2cc(F)c3c(=O)n(C4CCNC5(CC5)C4)ccc3c2)nc2cn(C)nc12 (centres unmarked) [Compound 431]	< 100	< 100	< 100	< 100	100 to 1000
Cc1cn2nc(-c3cc(F)c4c(=O)n(C5CCNC5)ccc4c3)cc(C)c2n1 (stereo in doubt) [Compound 392, (S)-6-(2,8-dimethylimidazo[1,2-b]pyridazin-6-yl)-8-fluoro-2-(pyrrolidin-3-yl)isoquinolin-1(2H)-one]	< 100	< 100	< 100	100 to 1000	1000 to 10000
Cc1cn2cc(-c3cc(F)c4c(=O)n(C5CCNC6(CC6)C5)ccc4c3)ncc2n1 (centres unmarked) [Compound 428, 8-fluoro-6-(2-methylimidazo[1,2-a]pyrazin-6-yl)-2-(4-azaspiro[2.5]octan-7-yl)isoquinolin-1(2H)-one]	100 to 1000	100 to 1000	100 to 1000	100 to 1000	1000 to 10000
Cn1cc2cc(-n3cnc4cc(C5=CC6CCC(C5)N6)ccc4c3=O)ccc2n1 (centres unmarked) [Compound 160]	> 10000	> 10000	> 10000	> 10000	> 10000
Cc1cn2cc(-c3cc(N)c4c(=O)n(C5CCNCC5)cnc4c3)cc(C#N)c2n1 [Compound 364, 6-[5-amino-4-oxo-3-(piperidin-4-yl)quinazolin-7-yl]-2-methylimidazo[1,2-a]pyridine-8-carbonitrile]	> 10000	> 10000	> 10000	> 10000	> 10000
Cn1cc2cc(-c3cc(F)c4c(=O)n(C5CCNC6(CC6)C5)ccc4c3)c(O)cc2n1 (centres unmarked) [Compound 414, 2-{4-azaspiro[2.5]octan-7-yl}-8-fluoro-6-(6-hydroxy-2-methylindazol-5-yl)isoquinolin-1-one]	1000 to 10000	1000 to 10000	1000 to 10000	1000 to 10000	> 10000
Cc1cn2cc(-c3cc(F)c4c(=O)n(C5CCNC6(CC6)C5)ccc4c3)cc(Cl)c2n1 (centres unmarked) [Compound 413, 2-{4-azaspiro[2.5]octan-7-yl}-6-{8-chloro-2-methylimidazo[1,2-a]pyridin-6-yl}-8-fluoroisoquinolin-1-one]	< 100	< 100	< 100	< 100	< 100
Cc1cn2cc(-c3cc(F)c4c(=O)n(C5CCOCC5)cnc4c3)cc(C#N)c2n1 [Compound 367, 6-[5-fluoro-3-(oxan-4-yl)-4-oxoquinazolin-7-yl]-2-methylimidazo[1,2-a]pyridine-8-carbonitrile]	100 to 1000	100 to 1000	100 to 1000	100 to 1000	100 to 1000
Cc1cn2cc(-c3ccc4c(=O)n([C@@H]5CCNC5)cc(C)c4c3)cc(F)c2n1 [Compound 452, (R)-6-(8-fluoro-2-methylimidazo[1,2-a]pyridin-6-yl)-4-methyl-2-(pyrrolidin-3-yl)isoquinolin-1(2H)-one]	1000 to 10000	1000 to 10000	1000 to 10000	1000 to 10000	1000 to 10000
Cc1cn2nc(-c3cc(Cl)c4c(=O)n(C5CCNCC5)ccc4c3)cc(C)c2n1 [Compound 390, 8-chloro-6-{2,8-dimethylimidazo[1,2-b]pyridazin-6-yl}-2-(piperidin-4-yl)isoquinolin-1-one; trifluoroacetaldehyde]	< 100	< 100	< 100	< 100	< 100
Cc1cn2nc(-c3cc(C)c4c(=O)n(C5CCNC6(CC6)C5)ccc4c3)cc(C)c2n1 (stereo in doubt) [Compound 397, (S)-6-(2,8-dimethylimidazo[1,2-b]pyridazin-6-yl)-8-methyl-2-(4-azaspiro[2.5]octan-7-yl)isoquinolin-1(2H)-one]	100 to 1000	< 100	100 to 1000	< 100	100 to 1000
Cc1nc2c(F)cc(-c3cc(F)c4c(=O)n(C5CCNC6(CC6)C5)ccc4c3)cc2o1 (centres unmarked) [Compound 417, 2-{4-azaspiro[2.5]octan-7-yl}-8-fluoro-6-(4-fluoro-2-methyl-1,3-benzoxazol-6-yl)isoquinolin-1-one]	< 100	< 100	< 100	< 100	< 100
CN1CCC(Nc2ccc3c(=O)n(-c4ccc5nn(C)cc5c4)cnc3c2)CC1 [Compound 163]	1000 to 10000	> 10000	1000 to 10000	> 10000	> 10000
Cc1cn2nc(-c3cc(O)c4c(=O)n(C5CCNCC5)ccc4c3)cc(C)c2n1 [Compound 391, 6-(2,8-dimethylimidazo[1,2-b]pyridazin-6-yl)-8-hydroxy-2-(piperidin-4-yl)isoquinolin-1(2H)-one]	< 100	< 100	< 100	< 100	< 100
Cc1cn2nc(-c3cc(C#N)c4c(=O)n(C5CCNC6(CC6)C5)ccc4c3)cc(C)c2n1 (centres unmarked) [Compound 387]	< 100	< 100	< 100	< 100	< 100
Cc1cn2nc(-c3cc(C)c4c(=O)n(C5CCNC6(CC6)C5)ccc4c3)cc(C)c2n1 (stereo in doubt) [Compound 398, (R)-6-(2,8-dimethylimidazo[1,2-b]pyridazin-6-yl)-8-methyl-2-(4-azaspiro[2.5]octan-7-yl)isoquinolin-1(2H)-one]	< 100	< 100	< 100	< 100	< 100
Cc1cn2cc(-c3ccc4c(=O)n([C@H]5CCCNC5)ccc4c3)cc(F)c2n1 [Compound 404, 6-{8-fluoro-2-methylimidazo[1,2-a]pyridin-6-yl}-2-[(3S)-piperidin-3-yl]isoquinolin-1-one]	1000 to 10000	1000 to 10000	1000 to 10000	100 to 1000	1000 to 10000
Cc1cn2nc(-c3ccc4c(=O)n([C@H]5CCNC6(CC6)C5)ccc4c3)cc(C)c2n1 [Compound 445]	< 100	< 100	< 100	< 100	< 100
Cc1cn2cc(-c3ccc4c(=O)n(C5CCNC6(CC6)C5)ncc4c3)cc(Cl)c2n1 (centres unmarked) [Compound 510]	1000 to 10000	1000 to 10000	1000 to 10000	1000 to 10000	1000 to 10000
Cn1cc2nc(-c3ccc4c(=O)n(C5CCNC6(CC6)C5)ncc4c3)ccc2n1 (centres unmarked) [Compound 511]	100 to 1000	100 to 1000	100 to 1000	100 to 1000	1000 to 10000
Cc1cn2nc(-c3ccc4c(=O)n([C@@H]5CCNC[C@H]5F)ncc4c3)cc(C)c2n1 [Compound 379]	100 to 1000	100 to 1000	100 to 1000	100 to 1000	1000 to 10000
Cc1cn2nc(-c3cc(F)c4c(=O)n([C@@H]5CCNC6(CC6)C5)ncc4c3)cc(C)c2n1 [Compound 446]	< 100	< 100	< 100	< 100	100 to 1000
Cc1cn2cc(-c3ccc4c(=O)n(C5CCNCC5)cc(C)c4c3)cc(F)c2n1 [Compound 440, 6-{8-fluoro-2-methylimidazo[1,2-a]pyridin-6-yl}-4-methyl-2-(piperidin-4-yl)isoquinolin-1-one]	< 100	< 100	< 100	< 100	< 100
